Source: patent US11236120B2, “Azithromycin derivatives with epithelial barrier enhancement properties” (EpiEndo Pharmaceuticals ehf, priority 2015, dated 2022)
≈ marks a conversion by molar mass, not a printed value. Entries after “also recorded” stand apart in the source; their conditions may differ.

Key:
[1] = system: Staphylococcus aureus (ATCC29213); assay: Assay 1: antimicrobial broth dilution on microtiter plates, Staphylococcus aureus; assay type: cell-based; conditions: S. aureus (ATCC29213)
Protocol: (§1) The antimicrobial activity of each Example compound was investigated. The Minimal Inhibitory Concentration (MIC—the minimal dose required to inhibit bacterial growth) and the Minimal Bactericidal Concentration (MBC—the minimal dose required to kill bacteria) were measured for each compound for Streptococcus pneumoniae (ATCC49619), Staphylococcus aureus (ATCC29213), Bacillus megaterium (BM-11) and Escherichia coli (D-21) using an antimicrobial broth dilution method on microtiter plates. The Minimal Inhibitory Concentration (MIC) was also measured for each example compound and azithromycin with Mycobacterium avium complex (MAC). […]
(§2) The Minimal Inhibitory Concentration (MIC—the minimal dose required to inhibit bacterial growth) and the Minimal Bactericidal Concentration (MBC—the minimal dose required to kill bacteria) were measured for each compound for Streptococcus pneumoniae (ATCC49619), Staphylococcus aureus (ATCC29213), Bacillus megaterium (BM-11) and Escherichia coli (D-21) using an antimicrobial broth dilution method on 96 well microtiter plates. […]
(§3) After addition of the bacterial solution, the plates were incubated at 35° C. for 18 h. The bacterial growth of each well was then recorded and then the Minimal Inhibitory Concentration (MIC) and Minimal Bactericidal Concentration ([…]) were determined.

[2] = system: Streptococcus pneumoniae (ATCC49619); assay: Assay 1: antimicrobial broth dilution on microtiter plates, Streptococcus pneumoniae; assay type: cell-based; conditions: Str
Protocol: as §1, §2, §3

patients with COPD = conditions: double blinded clinical trials; cited from earlier work
Mycobacterium avium = assay: Assay 2: STC colorimetric microplate assay, M. avium; assay type: cell-based
[3] = system: barrier integrity in the lungs of mice under sulphur dioxide insult; assay: Barrier integrity enhancement in the lung: HSA leakage into BAL after sulphur dioxide insult; assay type: in vivo
Protocol: The effect of compounds of the invention on maintenance of barrier integrity in the lungs of mice under sulphur dioxide insult was investigated.
1. 15 female mice were randomised into 3 groups of 5 mice. The three groups were: • a) Control group • b) Azithromycin treatment group • c) Investigational compound treatment group
2. The mice were pre-treated for three days with: • a) Placebo (Phosphate buffered saline—PBS) given at a dose of 10 mg/kg in an intravenous injection of 100 μl three times per week. • b) Azithromycin: given at a dose of 10 mg/kg in an intravenous injection of 100 μl three times per week. • c) The compound of Example 2: given at a dose of 10 mg/kg in an intravenous injection of 100 μl three times per week.
3. One mouse in each group was set to one side as a control. Four mice were then exposed to sulphur dioxide gas at a concentration of 200 ppm in air for a period of 60 minutes. The mice were in a cage that was inserted into a 45 L treatment box with a removable lid, a gas feed line and a gas exhaust vent. […] The gas was premixed from bottled air and bottled 200 ppm SO2 in a first box and then fed into the treatment box. The level of SO2 being fed into the treatment box can be varied by adjusting the relative flow of air and SO2 from the two source cylinders. As the sulphur dioxide concentration in this experiment was 200 ppm, it was used neat, with no additional air being mixed with it. The mice had access to food and water for the duration of the treatment.
4. 24 hours after the end of the treatment, 1 mg of human serum albumin (HSA) in 100 μl saline was injected into the tail vein of each mouse, and fluorescent dextrans (FDs) were injected into the airways. The mice were then kept sedated for 90 minutes.
5. After 90 minutes, the mice were sacrificed via exsanguination. Plasma and bronchoalveolar lavage (BAL) were collected and the lungs were processed for paraffin embedding.
6. The level of HSA in the BAL was quantified by ELISA. The ELISA test used was the one commercially available from abcam (Human Serum Albumin kit ab179887). In line with the kit manufacturer's instructions, absorbance at […] was measured. Fluorescent dextrans are quantified using a fluorescent plate reader.
The level of HSA that leaks into the lungs, as found in the BAL, is a measure of the integrity of the lung epithelial barrier.
In the placebo group, there were experimental difficulties with two of the four mice; in the Azithromycin group, there were experimental difficulties with one of the four mice; and in the investigational compound group, there were experimental difficulties with two of the four mice. Therefore, results were obtained from two mice in each of the placebo and investigational compound groups, and from three mice in the Azithromycin group.

## CC[C@H]1OC(=O)[C@H](C)[C@@H](O[C@H]2C[C@@](C)(OC)[C@@H](O)[C@H](C)O2)[C@H](C)[C@@H](O[C@@H]2O[C@H](C)C[C@H](N(C)C)[C@H]2O)[C@](C)(O)C[C@@H](C)CN(C)[C@H](C)[C@@H](O)[C@]1(C)O [Azithromycin, (2R,3S,4R,5R,8R,10R,11R,12S,13S,14R)-11-[(2S,3R,4S,6R)-4-(dimethylamino)-3-hydroxy-6-methyl-tetrahydropyran-2-yl]oxy-2-ethyl-3,4,10-trihydroxy-13-[(2R,4R,5S,6S)-5-hydroxy-4-methoxy-4,6-dimethyl-tetrahydropyran-2-yl]oxy-3,5,6,8,10,12,14-heptamethyl-1-oxa-6-azacyclopentadecan-15-one]
[1]
  MBC: 8 µg/mL (≈ 10.7 µM)
  MIC: 2 µg/mL (≈ 2.67 µM)
[2]
  MBC: 0.06 µg/mL (≈ 0.0801 µM)
  MIC: 0.06 µg/mL (≈ 0.0801 µM)
Patients with COPD
  reduction of the hospitalisation rate and disease related exacerbations: 30%
Mycobacterium avium; Mycobacterium avium S1002170205
  MIC: 16 µg/mL (≈ 21.4 µM)
Mycobacterium avium; Mycobacterium avium S1003050114
  MIC: 32 µg/mL (≈ 42.7 µM)
[3]; HSA in BAL by ELISA, mice, 10 mg/kg intravenous, 200 ppm SO2 for 60 minutes
  HSA level - absorbance at 600 nm: 0.346 ± 0.031
[3]; compared with control, FIG. 1
  leakage of HSA into the lung following SO2 insult: reduced compared with the control; also recorded: reduced compared with a control
[3]; relative to PBS control, mice, 10 mg/kg intravenous, 200 ppm SO2 for 60 minutes
  HSA level - absorbance at 600 nm relative to control: 0.593 ± 0.053
